These results are taken from patent US9023356B2, “Treatment method using EGFR antibodies and SRC inhibitors and related formulations” (Ludwig Institute for Cancer Research Ltd, priority 2007, dated 2015).

For test [1], the system named is BT474 breast and MKN7 gastric cancer cells in vitro. The conditions noted are these: full text: Activation of erbB2/3 heterodimers by heregulin generated resistance; no in vivo data; cited from earlier work.
Test [2] relates to Patients with NSCLC. The conditions noted are these: full text: A secondary mutation in EGFR kinase causes resistance; cited from earlier work.
Test [3] deals with Patients with NSCLC. The conditions noted are these: full text: Patients with activating mutations in the EGFR kinase domain more likely to respond; not all patients with mutations respond; cited from earlier work.
The test system of test [4] is A431 and MDA-468 breast cancer cells in vitro. The conditions noted are these: full text: Sustained signaling through Akt causes resistance. Presence of PTEN increases effectiveness of EGFR therapeutics; no in vivo data; cited from earlier work.
Test [5] has as its system Multiple cell lines in vitro. The conditions noted are these: full text: Sustained signaling through Akt or Erk may cause resistance; no in vivo data; cited from earlier work.
Test [6] has as its system Multiple cell lines in vitro. The conditions noted are these: full text: Sensitivity correlated with wt EGFR number. Constitutive active MAPK increased resistance; no in vivo data; cited from earlier work.
The test system of test [7] is Multiple cell lines in vitro and xenografts. The conditions noted are these: full text: More difficult to inhibit the phosphorylation of EGFR in the presence of ErbB2; cited from earlier work.
Test [8] deals with Patients with colorectal cancer. The conditions noted are these: full text: Response correlated with increase in EGFR copy number; small sample numbers; cited from earlier work.
Test [9] relates to de2-7 EGFR phosphorylation in U87MG glioma cells. Nature of the test: Immunoblotting of de2-7 EGFR phosphorylation after Src-family kinase inhibitors. The test is classed as cell-based. The conditions noted are these: 10 μM, 30 minutes or 24 h, serum starved cells. As for the experimental part:
FIG. 7A-7C. Interaction between de2-7 EGFR and Src. (A) Cells were serum starved overnight prior to treatment with 10 μM PP1 or PP2 or vehicle (DMSO) for 30 minutes or 24 h prior to immunoprecipitation with mAb528, mAb806 or an irrelevant isotype control. Immunoblotting was performed with an antibody specific for Y845 of the EGFR, while total de2-7 EGFR was visualized with the rabbit c-terminal polyclonal antibody. Results shown are representative of four independent experiments. […] Mice were treated with 1 mg mAb 806 three times per week for two weeks (days 18, 20, 22, 25, 27 and 29).
Cells were lysed in cold lysis buffer (30 mM HEPES, 150 mM NaCl, 10 mM NaF, 1% Triton X-100, 200 μM NaO3V, 0.4% H2O2 and the protease inhibitor cocktail set 1 (Calbiochem, San Diego, Calif.) containing 500 μM AEBSF, 150 nM Aprotinin, 1 μM E-64 protease inhibitor, 0.5 mM EDTA and 1 μM Leupeptin, pH 7.4). Lysates were immunoprecipitated with the mAb 806 or 528 and the resultant precipitates analyzed by immunoblotting as described by us in detail (21).
Activation of the wt EGFR leads to the transient activation of Src kinase. In a synergistic manner, activation of Src leads to phosphorylation tyrosine 845 (Y845) on the EGFR, which is not an auto-phosphorylation site rather a target for Src phosphorylation (24). Using an antibody specific to Y845 we examined the phosphorylation of Y845 in the de2-7 EGFR.
Background: In western blotting, separated proteins are transferred to a membrane and probed.

In test [10] the test system is Glioma cell lines in vitro. The conditions noted are these: full text: Resistant glioma expresses IGFR-1 which is further up-regulated by AG1478; effect appears mediated through PI3-K/Akt; single cell line in vitro; cited from earlier work.
Test [11] concerns Multiple cell lines in vitro. The conditions noted are these: full text: Sensitivity correlated with wt EGFR number; no in vivo data; cited from earlier work.
Test [12] deals with Multiple cell lines in vitro and xenografts. The conditions noted are these: full text: Sensitivity correlated with wt EGFR number; cited from earlier work.

Like-named read-outs stand apart in the source and are kept apart here.

Take `Cc1[nH]c2ncnc(Nc3cccc(Cl)c3)c2c1C` [CGP59326]: the Observation entry in [1] was “Activation of erbB2/3”.
As to `COc1cc2ncnc(Nc3ccc(F)c(Cl)c3)c2cc1OCCCN1CCOCC1` [ZD1839], the Observation result in the test on Patients with NSCLC [2] is reported as “A secondary mutation”; in the test with Patients with NSCLC [3] it was “Patients with activating”; in test [4], “Sustained signaling”; in test [5], “Sustained signaling”; in test [6], “Sensitivity correlated”; in test [7] it was “More difficult to inhibit”.
Consider `C#Cc1cccc(Nc2ncnc3cc(OCCOC)c(OCCOC)cc23)c1` [OSI-774], for which the Observation result in the test on Patients with NSCLC [2] was “A secondary mutation”.
With “ABX: monoclonal antibody directed to the EGFR”, the Observation result in test [8] is given as “Response correlated”.
With `CC(C)(C)n1nc(-c2ccc(Cl)cc2)c2c(N)ncnc21` [PP2, (4-chlorophenyl)-7-(t-butyl)pyrazolo[3,4-d]-pyrimidine], in test [9], the “Phosphorylation at Y845 of de2-7 EGFR” value was “rapidly blocked” and the “autophosphorylation site at Y1173 of de2-7 EGFR” value is “relatively unaffected”.
Regarding `COc1cc2ncnc(Nc3cccc(Cl)c3)c2cc1OC` [AG1478], the Observation result in [10] is reported as “Resistant glioma”.
Take `COc1cc2ncnc(Nc3cccc(Br)c3)c2cc1OC` [PD153035]: the Observation result is “Sensitivity correlated” in test [11] and “Sustained signaling” in test [5].

B1: EMD72000: EGFR inhibitor listed in Table 1 (antibody, chains of the INN, looked up, V domains shown)
VH: QVQLVQSGAEVKKPGASVKVSCKASGYTFTSHWMHWVRQAPGQGLEWIGEFNPSNGRTNYNEKFKSKATMTVDTSTNTAYMELSSLRSEDTAVYYCASRDYDYDGRYFDYWGQGTLVTVSS
VL: DIQMTQSPSSLSASVGDRVTITCSASSSVTYMYWYQQKPGKAPKLLIYDTSNLASGVPSRFSGSGSGTDYTFTISSLQPEDIATYYCQQWSSHIFTFGQGTKVEIK
Consider B1, for which the Observation result in test [12] is on record as “Sensitivity correlated”.
